Source: US20140295417A1, “IDENTIFICATION OF ANTIBIOTIC RESISTANCE” (priority 2011, published 2014)
Read-outs that look alike come from different tables or passages of the source. Where a SMILES comes first, the peptide text is derived from it. Bridges are numbered along the chain shown (N, C = ends). [ ]: non-standard residue; d: D form. The star is where a group is joined. NMePhe(4-NMe2) = CN[C@@H](Cc1ccc(N(C)C)cc1)C(=O)O; Pip(4-oxo) = O=C1CCN[C@H](C(=O)O)C1; Picolinoyl(3-OH) = O=C(c1ncccc1O)*; Phg = N[C@H](C(=O)O)c1ccccc1; dAbu = CC[C@@H](N)C(=O)O

Columns and labels:
23S rRNA = settings: cited from earlier work
[1] = tested on: HLAR, High level Aminoglycoside Resistance in Enterococci; assay: Binding of fluorescently labelled antibiotic, resistant vs non-resistant form (Table 3); type: cell-based; settings: resistant relative to non-resistant form
Protocol: (§1) Table 3: Antibiotic resistance mechanism in clinically relevant micro-organisms and alteration in the amount of antibiotics in resistant micro-organisms. The alteration of the amount of detectable labelled antibiotics in micro-organisms in its resistant form is determined relative to its non-resistant form. The amount is expressed in % change of fluorescence (decrease and increase, respectively) of an antibiotic which carries a fluorescent label.

[2] = tested on: VRE, Vancomycin resistant Enterococci; settings: mechanism column; reduction of affinity in resistant form; cited from earlier work
[3] = tested on: VISA, Vancomycin intermediary SA; assay: Binding of fluorescently labelled antibiotic, resistant vs non-resistant form (Table 3); type: cell-based, Staphylococcus aureus; settings: increased binding; fluorescent-labelled antibiotic, resistant relative to non-resistant form
Protocol: as §1

[4] = tested on: VRS, Vancomycin resistant Staph; assay: as above; type: cell-based, Staphylococci (CNS); settings: increased binding; fluorescent-labelled antibiotic, resistant relative to non-resistant form
Protocol: as §1

[5] = tested on: VRE, Vancomycin resistant Enterococci; assay: as above; type: cell-based; settings: resistant relative to non-resistant form
Protocol: as §1

[6] = tested on: ESBL, Extended Spectrum β-Lactamase Pseudomonas spp.; assay: as above; type: cell-based; settings: increase of binding; fluorescent-labelled antibiotic, resistant relative to non-resistant form
Protocol: as §1

[7] = tested on: ESBL, Extended Spectrum β-Lactamase BCC; assay: as above; type: cell-based; settings: increase of binding; fluorescent-labelled antibiotic, resistant relative to non-resistant form
Protocol: as §1

[8] = tested on: ESBL, Extended Spectrum β-Lactamase Enterobacteriaceae; assay: as above; type: cell-based; settings: increase of binding; fluorescent-labelled antibiotic, resistant relative to non-resistant form
Protocol: as §1

[9] = tested on: ESBL, Extended Spectrum β-Lactamase Acinetobacter; assay: as above; type: cell-based; settings: increase of binding; fluorescent-labelled antibiotic, resistant relative to non-resistant form
Protocol: as §1

[10] = tested on: ESBL, Extended Spectrum β-Lactamase Stenotrophomonas maltophilla; assay: as above; type: cell-based; settings: increase of binding; fluorescent-labelled antibiotic, resistant relative to non-resistant form
Protocol: as §1

[11] = tested on: CA-MRSA, Community acquired MRSA; type: cell-based, Staphylococcus aureus; settings: resistant relative to non-resistant form
Protocol: as §1

[12] = tested on: BORSA, Border line oxacillin resistant SA; assay: Binding of fluorescently labelled antibiotic, resistant vs non-resistant form (Table 3); type: cell-based, Staphylococcus aureus; settings: resistant relative to non-resistant form
Protocol: as §1

[13] = tested on: MRSA, Methicillin Resistant SA; assay: as above; type: cell-based, Staphylococcus aureus; settings: resistant relative to non-resistant form
Protocol: as §1

[14] = tested on: ORSA, Oxacillin resistant SA; assay: as above; type: cell-based, Staphylococcus aureus; settings: resistant relative to non-resistant form
Protocol: as §1

[15] = reduction of binding, fluorescent-labelled antibiotic

[H]/N=C(/N)N[C@H]1[C@H](O)[C@@H](O)[C@H](O[C@@H]2O[C@@H](C)[C@](O)(C=O)[C@H]2O[C@@H]2O[C@@H](CO)[C@H](O)[C@@H](O)[C@@H]2NC)[C@@H](N/C(N)=N\[H])[C@@H]1O [Streptomycin]
Phenotype (23S rRNA; 23S rRNA position 2661, "G to C", E. coli, when expressed with Smr, hyperaccurate S12 mutation): streptomycin dependent
% Change in Fluorescenc [1, 15]: >80% reduction
Effect of resistance on fluorescence [1]: Reduction in Streptomycin binding

CN[C@H](CC(C)C)C(=O)N[C@H]1C(=O)N[C@@H](CC(N)=O)C(=O)N[C@H]2C(=O)N[C@H]3C(=O)N[C@H](C(=O)N[C@H](C(=O)O)c4cc(O)cc(O)c4-c4cc3ccc4O)[C@H](O)c3ccc(c(Cl)c3)Oc3cc2cc(c3O[C@@H]2O[C@H](CO)[C@@H](O)[C@H](O)[C@H]2O[C@H]2C[C@](C)(N)[C@H](O)[C@H](C)O2)Oc2ccc(cc2Cl)[C@H]1O [Vancomycin]
Reduced affinity to Van [2]: Reduced affinity to Van by 3 orders of magnitude
% Change in Fluorescenc [3]: 20-50%
% Change in Fluorescenc [4]: >50%
% Change in Fluorescenc [5, 15]: >80%
Effect of resistance on fluorescence [5]: Reduction of vancomycin

O=C(O)[C@H]1/C(=C/CO)O[C@@H]2CC(=O)N21 [clavulanic acid]
% Change in Fluorescenc [6]: >80%
% Change in Fluorescenc [7]: >80%
% Change in Fluorescenc [8]: >80%
% Change in Fluorescenc [9]: >80%
% Change in Fluorescenc [10]: >80%

CC[C@H]1NC(=O)[C@@H](NC(=O)c2ncccc2O)[C@@H](C)OC(=O)[C@H](c2ccccc2)NC(=O)[C@@H]2CC(=O)CCN2C(=O)[C@H](Cc2ccc(N(C)C)cc2)N(C)C(=O)[C@@H]2CCCN2C1=O [pristinamycin 1A] ({Picolinoyl(3-OH)}-T[dAbu]P[NMePhe(4-NMe2)][Pip(4-oxo)][Phg]; ester 1-C)
Phenotype (binding on peptidyl transferase loop) (23S rRNA; 23S rRNA position 2500, U2500A/C2501A, E. coli): Inhibits binding of 1A
Phenotype (binding on peptidyl transferase loop) (23S rRNA; 23S rRNA position 2602, A2602C/C2501A, E. coli): Inhibits binding of 1A

CSC[S@+]([O-])C[C@H](CO)NC(=O)/C=C/c1c(C)[nH]c(=O)[nH]c1=O [sparsomycin]
Phenotype (resistance) (23S rRNA; 23S rRNA position 2452 "C to U", Halobacterium halobium (Tan et al. 1996)): Low level sparsomycin

C=C(NC(=O)C(=C)NC(=O)c1csc(C2=N[C@@H]3c4csc(n4)[C@H]4NC(=O)c5csc(n5)[C@H]([C@](C)(O)[C@@H](C)O)NC(=O)[C@H]5CSC(=N5)/C(=C/C)NC(=O)[C@H]([C@@H](C)O)NC(=O)c5csc(n5)[C@]3(CC2)NC(=O)[C@H](C)NC(=O)C(=C)NC(=O)[C@H](C)NC(=O)[C@H]([C@@H](C)CC)N[C@@H]2C=Cc3c([C@H](C)O)cc(nc3[C@H]2O)C(=O)O[C@@H]4C)n1)C(N)=O [thiostrepton]
Phenotype: binding of thiostrepton (23S rRNA; 23S rRNA 1056 G to C, E. coli, RNA fragments): weakened in RNA
Phenotype: drug binding affinity (23S rRNA; 23S rRNA 1067 A to C, E. coli): affinity is reduced similarly.
Phenotype: level of resistance (23S rRNA; 23S rRNA 1067 A to C, E. coli): A to C or U confers high
Phenotype: drug binding affinity (23S rRNA; 23S rRNA 1067 A to G, E. coli): affinity is reduced similarly.
Phenotype: level of resistance (23S rRNA; 23S rRNA 1067 A to G, E. coli): confers intermediate level
Phenotype: drug binding affinity (23S rRNA; 23S rRNA 1067 A to U, E. coli): affinity is reduced similarly.
Phenotype: level of resistance (23S rRNA; 23S rRNA 1067 A to U, E. coli): A to C or U confers high
Phenotype: thiostrepton resistance in poly (U) translation (23S rRNA; 23S rRNA 1067 A to U, E. coli, mutant constituted 30% of the total 23S rRNA pool in the ribosomes): ribosomes; exhibited 30%

COc1cc(Cc2cnc(N)nc2N)cc(OC)c1OC [trimethoprim]
Effect of resistance on fluorescence [11]: binding. Maintaims binding

Penicillin [listing 1 of 2 here]
% Change in Fluorescenc [11, 15]: > to ≈80%
% Change in Fluorescenc [12, 15]: > to ≈80%
% Change in Fluorescenc [13, 15]: > to ≈80%
Effect of resistance on fluorescence [13]: Reduction of Penicillin binding
% Change in Fluorescenc [14, 15]: > to ≈80%

Penicillin [listing 2 of 2 here]
Effect of resistance on fluorescence [11]: Reduction of Penecillin
Effect of resistance on fluorescence [12]: Reduction of Penecillin
Effect of resistance on fluorescence [14]: Reduction of Penecillin

spiramycin
Phenotype (23S rRNA; 23S rRNA position 2611, "C to G", Chlamydomonas reinhardtii (Gauthier et al. 1988)): spiramycin resistance
Phenotype (23S rRNA; 23S rRNA position 2611, "C to G", Yeast mitochondria (Sor and Fukahara 1984)): spiramycin resistance
